Reference: patent US10660933B2, “Compositions and methods for inhibition of bacterial infections in human endocervix” (priority 2015, dated 2020)

Legend:
[1] = test system: Neisseria gonorrhoeae MS11; test: Ng adherence, invasion, and transmigration assays on polarized epithelial cells; type: cell-based; settings: for transmigration of MS11ΔOpa across the polarized T84 monolayer / Ng invasion into polarized T84 cells (gentamicin resistance): 6 h; for transmigration of MS11ΔOpa across the polarized T84 monolayer: ML-7 10 μM, PIK 100 μM, 2APB 10 μM, Y27632 10 μM; for Ng adherence to polarized T84 cells / Ng invasion into polarized T84 cells (gentamicin resistance): MS11ΔOpa, with inhibitors; for Ng adherence to polarized T84 cells: 3 h
Experimental: Ng adherence, invasion, and transmigration assays. The assays were performed as previously described. Briefly, polarized epithelial cells that were pretreated with or without the inhibitors for 1 h were incubated apically with Ng at 37° C. for 3 h for adherence and 6 h for invasion and transmigration assays with or without the inhibitors. Ng in the basolateral media were cultured and counted as transmigrated bacteria. Cells were washed and lysed to count adherent Ng. Cells were treated with gentamicin, washed, and lysed to count bacteria that were resistant to gentamicin treatment as invaded Ng.

[2] = test system: phosphorylated myosin light chain (pMLC); test: pMLC (active NMII) redistribution in Ng-inoculated polarized T84 cells (3D-CFM); type: cell-based, human; settings: for accumulation of pMLC at Ng adherent sites / apical:lateral FIR of pMLC: polarized T84, Ng 6 h; for junction:non-junction FIR of pMLC: polarized T84, Ng 6 h (Y27632: MS11ΔOpa); for junction:non-junction FIR of pMLC / apical:lateral FIR of pMLC: ML-7 10 μM, PIK 100 μM, Y27632 10 μM, 2APB 10 μM, BAPTA 50 μM
Experimental: Ng induce and Opa suppresses the redistribution of active non-muscle myosin II in polarized and endocervical epithelial cells. […] We examined the cellular distribution of active NMII after 6-h incubation with Ng, using antibody specific for phosphorylated myosin light chain (pMLC) and 3D-CFM. In uninfected polarized T84 (FIGS. 5A and 5C) and HEC-1-B cells (FIG. 10), pMLC was primarily localized at the apical junction. The polarized distribution of pMLC at the apical surface was quantified by the FIR of pMLC at the apical to the lateral (Apical:Lateral) membrane areas in individual cells using CFM images scanning across the apical and basolateral surfaces (FIGS. 5A and 5B). The polarized distribution pMLC at the apical junction was quantified by the FIR of pMLC at the junction to non-junction (Junction:Non-junction) areas of the apical region using CFM images scanning through the apical junction (FIGS. 5C and 5D). The apical inoculation of MS11Opa+ and MS11ΔOpa caused significant increases in apical:lateral FIR in both polarized T84 (FIGS. 5A and 5B) and HEC-1-B cells (FIG. 10), compared to the no Ng control. There were also significant increases in the junction:non-junction FIR in infected polarized T84 cells, compared to non-infected cells (FIGS. 5C and 5D). […] We further noticed that NMII at the apical surface appeared to accumulate at Ng adherent sites (FIG. 5A, middle panels, arrows).
(§1) Immunofluorescence analysis of polarized epithelial cells. Cells were pretreated with or without NMII kinase inhibitors, Y27632 (10 μM, EMD Millipore), ML-7 (10 μM, EMD Millipore) and PIK (100 μM) or Ca2+ inhibitors, 2APB (10 μM, EMD Millipore) and BAPTA (50 μM, EMD Millipore) for 1 h, and incubated with Ng in the presence or absence of the inhibitors for 6 h. Cell were washed and fixed with 4% paraformaldehyde, permeabilized with 1% Triton X100, and stained with anti-E-cadherin (BD Bioscience), anti-pMLC (Cell Signaling Technology, Carlsbad, Calif.), anti-Ng antibodies, and DAPI for nuclei. Cells were analyzed by CFM. Images were acquired as Z-series of 0.37 μm slices, and 3D composites obtained. Epithelial exfoliation will be quantified using xz images as described for the tissue explants. The distribution of E-cadherin and pMLC was quantitatively analyzed by measuring the FIR at the apical junctional to the cytoplasmic area (from xy images) or at the apical to lateral surface area (from xz images) in individual cells.

polarized T84 cells [3] = test: Fence function of the apical junction (CellMask) in polarized T84 cells; type: cell-based, human; settings: polarized T84, Ng-inoculated; ML-7 10 μM, 2APB 10 μM
Experimental: Ng-induced junctional disassembly leads to a significant increase in the lateral diffusion between the apical and basolateral membrane but not in the permeability of epithelial monolayers. To determine whether Opa, MLCK and Ca^2+ flux are involved in this functional alteration of the apical junction, we stained the basolateral surface of polarized T84 epithelial cells exclusively with CellMask dye for […], after apical incubation with fluorescently labeled Ng for 6 h. The appearance of basolaterally stained CellMask dye in the apical membrane indicates a decrease in the fence function of the apical junction (FIG. 4D). […] The percentage of cells with basolaterally labeled CellMask reaching the apical surface increased to 19.4% when MS11Opa+ was inoculated and to 62.2% when MS11ΔOpa was inoculated (FIGS. 4E and 4F).
Fence functional of the apical junction. Polarized T84 cells were incubated with Ng apically for 6 h. Then the cells were incubated with the CellMask dye (5 μg/ml, Life Technologies) in the basolateral chamber only for 15 min, and xz images were acquired using Leica TCS SP5X confocal microscope (Leica Microsystems, Buffalo Grove, Ill.). The number of epithelial cells displaying CellMask staining at the apical membrane was countered visually as the percentage of the total number of epithelial cells in each randomly acquired image.

polarized T84 cells [4] = test: Ng-induced exfoliation of polarized T84 monolayers (3D-CFM); type: cell-based, human; settings: MS11ΔOpa, 6 h; inhibitor 1 h before and during; ML-7 10 μM, PIK 100 μM, Y27632 10 μM, 2APB 10 μM
From the text: To quantify epithelial exfoliation, the number of Ng associated cells localized on the top of the epithelial monolayer (exfoliated) and the total number of Ng associated epithelial cells was counted by visual inspection in each randomly acquired image, to determine the percentage of exfoliated cells. To estimate the level of Ng penetration into the subepithelium, the number of non-exfoliated epithelial cells (in clearly visible epithelial monolayers) with basal Ng staining and the total number of Ng associated epithelial cells were visually counted to calculate the percentage of infected epithelial cells with Ng penetration into the basolateral side. To evaluate the disruption of the apical junction, the number of Ng associated epithelial cells that lost continuously apical staining of the junctional protein ZO1 and the total number of Ng associated epithelial cells were visually counted to calculate the percentage of Ng associated epithelial cells with apical junction disassembly. To quantify the redistribution of pMLC, the fluorescence intensity ratios (FIR) of pMLC staining at the apical to lateral in individual epithelial cells were determined using average FI as previously described.
as §1

polarized T84 cells [5] = test: Exfoliation of polarized T84 cells treated with inhibitors alone, without Ng; type: cell-based, human; settings: no Ng inoculation, 6 h
Experimental: Polarized T84 cells were treated with inhibitors for 6 h, fixed, stained to visualize the cell nuclei, and imaged by 3D-CFM. The percentage of cell moving above the epithelial monolayer (dash lines) was determined from three independent experiments. Scale bar, 5 μm. *p≤0.05.
as §1

Structure (SMILES): NCCOB(c1ccccc1)c1ccccc1 [2APB]
- transmigration of MS11ΔOpa across the polarized T84 monolayer [1]: significantly reduced the transmigration
- Ng adherence to polarized T84 cells [1]: none of these inhibitors had any significant effect
- Ng invasion into polarized T84 cells (gentamicin resistance) [1]: none of these inhibitors had any significant effect
- accumulation of pMLC at Ng adherent sites [2]: decreased
- junction:non-junction FIR of pMLC [2]: decreased
- apical:lateral FIR of pMLC [2]: decreased
- percentage of epithelial cells with CellMask staining leaked to the apical surface (polarized T84 cells [3]): significantly lowered the percentage of epithelial cells with the CellMark staining leaked to the apical surface
- exfoliation of MS11ΔOpa-infected epithelial cells from T84 monolayers (polarized T84 cells [4]): reduced the exfoliation of polarized T84 cells to the level similar to ML-7 and PIK
- epithelial exfoliation with inhibitors alone (polarized T84 cells [5]): did not affect epithelial exfoliation

Structure (SMILES): O=S(=O)(c1cccc2c(I)cccc12)N1CCCNCC1 [ML-7]
- transmigration of MS11ΔOpa across the polarized T84 monolayer [1]: significantly reduced the transmigration
- Ng adherence to polarized T84 cells [1]: none of these inhibitors had any significant effect
- Ng invasion into polarized T84 cells (gentamicin resistance) [1]: none of these inhibitors had any significant effect
- accumulation of pMLC at Ng adherent sites [2]: significantly reduced
- junction:non-junction FIR of pMLC [2]: significantly reduced
- apical:lateral FIR of pMLC [2]: significantly reduced
- percentage of epithelial cells with CellMask staining leaked to the apical surface (polarized T84 cells [3]): significantly lowered the percentage of epithelial cells with the CellMark staining leaked to the apical surface
- exfoliation of MS11ΔOpa-infected epithelial cells from T84 monolayers (polarized T84 cells [4]): reduced the exfoliation
- epithelial exfoliation with inhibitors alone (polarized T84 cells [5]): did not affect epithelial exfoliation
